In patent US8044052B2, “Biaryl ether urea compounds” (Pfizer Inc., priority 2006, dated 2011):
Structures can show the parent of a compound that is named as a salt.

What follows are compounds tested against T1, Human FAAH (Homo sapiens, UniProt O00519) (assay: FAAH assay (glutamate dehydrogenase-coupled, oleamide substrate, absorbance at 340 nm)). Settings: irreversible inhibition, 1-4 nM FAAH, pH 7.4, 30° C., 90 min.
T1 construct: made in house
T1 sequence (O00519 1-579): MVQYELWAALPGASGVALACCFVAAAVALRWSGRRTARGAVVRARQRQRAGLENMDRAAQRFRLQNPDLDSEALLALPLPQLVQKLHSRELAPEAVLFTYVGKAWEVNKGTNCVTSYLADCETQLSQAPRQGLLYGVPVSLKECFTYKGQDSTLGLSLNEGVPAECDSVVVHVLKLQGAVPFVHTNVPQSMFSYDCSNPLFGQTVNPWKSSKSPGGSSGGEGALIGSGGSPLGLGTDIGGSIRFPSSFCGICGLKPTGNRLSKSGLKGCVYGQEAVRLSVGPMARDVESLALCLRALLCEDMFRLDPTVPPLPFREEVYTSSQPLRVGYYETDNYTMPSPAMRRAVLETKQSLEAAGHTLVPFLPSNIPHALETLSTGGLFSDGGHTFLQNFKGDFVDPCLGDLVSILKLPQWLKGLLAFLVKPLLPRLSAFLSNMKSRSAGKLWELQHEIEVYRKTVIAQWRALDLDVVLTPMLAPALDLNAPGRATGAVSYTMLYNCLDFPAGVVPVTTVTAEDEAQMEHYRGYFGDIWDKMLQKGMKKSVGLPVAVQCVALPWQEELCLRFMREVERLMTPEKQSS
Format: biochemical
Description: The FAAH assay was carried out in 384-well clear polystyrene plates in a total volume of 50 μl per well. All percents are by volume. To each well, was placed the reaction mixture (40 μl) containing 1-4 nM FAAH, 50 mM NaPi, pH 7.4, 3 mM α-ketoglutarate, 0.15 mM NADH, 7.5 U/ml glutamate dehydrogenase, 2 mM ADP, 1 mM EDTA, and 0.1% Triton X-100 (The concentration shown for each component is the final concentration in the assay). […] This was immediately followed by the addition of 5 μl oleamide (500 μM) dissolved in 75% EtOH/25% DMSO and the reaction mixture was mixed for 1.5 min. The final concentrations of DMSO and EtOH in the assay were each 7.5%.
Initial velocity data (V) were obtained from the slopes of the initial progressive curves. They were plotted as a function of substrate concentration and fit to the Michaelis-Menten equation (1) using Prism (GraphPad Software, Inc., San Diego, Calif.) software to obtain Km and Vmax values.
To obtain potencies of irreversible inhibitors, progressive curves consistent with first order inhibition kinetics (two-step irreversible inhibition mechanism) were fit to equation (2) by nonlinear least squares regressions to determine kobs values at each inhibitor concentration, where [P]t is the absorbance at time t, V0 is a constant related to the steady state rate of the uninhibited reaction, and kobs is the first order rate constant for enzyme inactivation. The inhibitor dissociation constant (Ki) and the first order rate
[formula] constant of enzyme inactivation at infinite inhibitor concentration (kinact) were then obtained by fitting the kobs vs. [I] curves to equation (3).

Compound	hFAAH kinact/Ki
N-(pyridin-3-yl)-4-(3-[{phenyl-2-yl]oxy}benzylidene)piperidine-1-carboxamide [Example 31]	931 M⁻¹ s⁻¹
4-(3-(5-methylpyridin-2-yloxy)benzylidene)-N-pyridin-3-yl)piperidine-1-carboxamide [Example 44]	9480 M⁻¹ s⁻¹
O=C(Nc1ccccn1)N1CCC(=Cc2cccc(Oc3ccc(C(F)(F)F)cn3)c2)CC1 [Example 9]	3660 M⁻¹ s⁻¹

Same assay, conditions: irreversible inhibition, 1-4 nM FAAH, pH 7.4, 30° C., 90 min, read-out: hFAAH kinact/Ki

Compound	kinact/KI
Cc1nc2c(c(Oc3cccc(C=C4CCN(C(=O)Nc5cccnn5)CC4)c3)n1)CCN(C)C2 [Example 114, 4-{3-[(2,7-dimethyl-5,6,7,8-tetrahydropyrido[3,4-d]pyrimidin-4-yl)oxy]benzylidene}-N-pyridazin-3-ylpiperidine-1-carboxamide]	< 10 M⁻¹ s⁻¹
O=C(Nc1cccnc1)N1CCC(=Cc2cccc(Oc3ncc(Br)cn3)c2)CC1 [Example 36, 4-(3-(5-bromopyrimidin-2-yloxy)benzylidene)-N-(pyridin-3-yl)piperidine-1-carboxamide]	5070 M⁻¹ s⁻¹
CCCc1cnc(Oc2cccc(C=C3CCN(C(=O)Nc4cccnn4)CC3)c2)nc1 [Example 111, 4-{3-[(5-propylpyrimidin-2-yl)oxy]benzylidene}-N-pyridazin-3-ylpiperidine-1-carboxamide]	4240 M⁻¹ s⁻¹
O=C(Nc1cccnc1)N1CCC(=Cc2cccc(Oc3ccc(N4CCCC4)cn3)c2)CC1 [Example 86, 4-(3-(5-(pyrrolidin-1-yl)pyridin-2-yloxy)benzylidene)-N-(pyridin-3-yl)piperidine-1-carboxamide]	856 M⁻¹ s⁻¹
COc1ccc(Oc2cccc(C=C3CCN(C(=O)Nc4cccnn4)CC3)c2)c(C)n1 [Example 97, 4-{3-[(6-methoxy-2-methylpyridin-3-yl)oxy]benzylidene}-N-pyridazin-3-ylpiperidine-1-carboxamide]	394 M⁻¹ s⁻¹
CC(C)Oc1ccc(Oc2cccc(C=C3CCN(C(=O)Nc4cccnc4)CC3)c2)nc1 [Example 51, 4-(3-(5-isopropoxypyridin-2-yloxy)benzylidene)-N-(pyridin-3-yl)piperidine-1-carboxamide]	4330 M⁻¹ s⁻¹
Cc1cccc(Oc2cccc(C=C3CCN(C(=O)Nc4cccnn4)CC3)c2)n1 [Example 41, 4-(3-(6-methylpyridin-2-yloxy)benzylidene)-N-(pyridazin-3-yl)piperidine-1-carboxamide]	687 M⁻¹ s⁻¹
COc1cncc(NC(=O)N2CCC(=Cc3cccc(Oc4ccc(C(F)(F)F)cn4)c3)CC2)n1 [Example 23, N-(6-methoxypyrazin-2-yl)-4-(3-{[5-(trifluoromethyl)pyridin-2-yl]oxy}benzylidene)piperidine-1-carboxamide]	2910 M⁻¹ s⁻¹
CCn1ncnc1NC(=O)N1CCC(=Cc2cccc(Oc3ccc(C(F)(F)F)cn3)c2)CC1 [Example 81, N-(1-ethyl-1H-1,2,4-triazol-5-yl)-4-(3-{[5-(trifluoromethyl)pyridin-2-yl]oxy}benzylidene)piperidine-1-carboxamide trifluoroacetate]	1010 M⁻¹ s⁻¹
Cc1ccnc(Oc2cccc(C=C3CCN(C(=O)Nc4cccnc4)CC3)c2)c1 [Example 72, 4-{3-[(4-methylpyridin-2-yl)oxy]benzylidene}-N-pyridin-3-ylpiperidine-1-carboxamide]	681 M⁻¹ s⁻¹
Cc1cccnc1Oc1cccc(C=C2CCN(C(=O)Nc3cccnc3)CC2)c1 [Example 42, 4-(3-(3-methylpyridin-2-yloxy)benzylidene)-N-(pyridin-3-yl)piperidine-1-carboxamide]	834 M⁻¹ s⁻¹
Cc1cc(NC(=O)N2CCC(=Cc3cccc(Oc4ccc(C(F)(F)F)cn4)c3)CC2)cnc1C [Example 131, N-(5,6-dimethylpyridin-3-yl)-4-(3-{[5-(trifluoromethyl)pyridin-2-yl]oxy}benzylidene)piperidine-1-carboxamide]	1110 M⁻¹ s⁻¹
COc1cccc2cnc(Oc3cccc(C=C4CCN(C(=O)Nc5cccnn5)CC4)c3)nc12 [Example 101, 4-{3-[(8-methoxyquinazolin-2-yl)oxy]benzylidene}-N-pyridazin-3-ylpiperidine-1-carboxamide]	209 M⁻¹ s⁻¹
O=C(Nc1cccnc1)N1CCC(=Cc2cccc(Oc3ccc(OCC(F)(F)F)cn3)c2)CC1 [Example 49, 4-(3-(5-(2,2,2-trifluoroethoxy)pyridin-2-yloxy)benzylidene)-N-(pyridin-3-yl)piperidine-1-carboxamide]	6560 M⁻¹ s⁻¹
COc1ccc(NC(=O)N2CCC(=Cc3cccc(Oc4ccc(C(F)(F)F)cn4)c3)CC2)c(C)n1 [Example 140, N-(6-methoxy-2-methylpyridin-3-yl)-4-(3-{[5-(trifluoromethyl)pyridin-2-yl]oxy}benzylidene)piperidine-1-carboxamide]	837 M⁻¹ s⁻¹
O=C(Nc1cccnn1)N1CCC(=Cc2cccc(Oc3cnccn3)c2)CC1 [Example 123, 4-[3-(pyrazin-2-yloxy)benzylidene]-N-pyridazin-3-ylpiperidine-1-carboxamide]	203 M⁻¹ s⁻¹
C#CCCCOc1ccc(Oc2cccc(C=C3CCN(C(=O)Nc4cccnc4)CC3)c2)nc1 [Example 89, 4-(3-(5-(pent-4-ynyloxy)pyridin-2-yloxy)benzylidene)-N-(pyridin-3-yl)piperidine-1-carboxamide]	6450 M⁻¹ s⁻¹
O=C(Nc1cccnn1)N1CCC(=Cc2cccc(Oc3nccc(C(F)(F)F)n3)c2)CC1 [Example 113, N-pyridazin-3-yl-4-(3-{[4-(trifluoromethyl)pyrimidin-2-yl]oxy}benzylidene)piperidine-1-carboxamide]	584 M⁻¹ s⁻¹
Cc1ccc(Oc2cccc(C=C3CCN(C(=O)Nc4onc(C)c4C)CC3)c2)nc1 [Example 46, 4-(3-(5-methylpyridin-2-yloxy)benzylidene)-N-(3,4-dimethylisoxazol-5-yl)piperidine-1-carboxamide]	3700 M⁻¹ s⁻¹
CCOc1cc(C=C2CCN(C(=O)Nc3cccnc3)CC2)cc(Oc2ccc(C(F)(F)F)cn2)c1 [Example 58, 4-(3-ethoxy-5-(5-(trifluoromethyl)pyridin-2-yloxy)benzylidene)-N-(pyridin-3-yl)piperidine-1-carboxamide]	322 M⁻¹ s⁻¹
O=C(Nc1cccnn1)N1CCC(=Cc2cc(Oc3ccc(C(F)(F)F)cn3)cc(C3CC3)c2)CC1 [Example 64, 4-(3-cyclopropyl-5-(5-(trifluoromethyl)pyridin-2-yloxy)benzylidene)-N-(pyridazin-3-yl)piperidine-1-carboxamide]	417 M⁻¹ s⁻¹
Cc1nccnc1Oc1cccc(C=C2CCN(C(=O)Nc3cccnn3)CC2)c1 [Example 118, 4-{3-[(3-methylpyrazin-2-yl)oxy]benzylidene}-N-pyridazin-3-ylpiperidine-1-carboxamide]	191 M⁻¹ s⁻¹
Cn1cc(NC(=O)N2CCC(=Cc3cccc(Oc4ccc(C(F)(F)F)cn4)c3)CC2)cn1 [Example 137, N-(1-methyl-1H-pyrazol-4-yl)-4-(3-{[5-(trifluoromethyl)pyridin-2-yl]oxy}benzylidene)piperidine-1-carboxamide]	1070 M⁻¹ s⁻¹
O=C(Nc1cccnc1)N1CCC(=Cc2ccc(Cl)c(Oc3ccc(C(F)(F)F)cn3)c2)CC1 [Example 59, 4-(4-chloro-3-(5-(trifluoromethyl)pyridin-2-yloxy)benzylidene)-N-(pyridin-3-yl)piperidine 1-carboxamide]	260 M⁻¹ s⁻¹
O=C(Nc1ccc(Oc2cccnc2)nc1)N1CCC(=Cc2cccc(Oc3ccc(C(F)(F)F)cn3)c2)CC1 [Example 128, N-[6-(pyridin-3-yloxy)pyridin-3-yl]-4-(3-{[5-(trifluoromethyl)pyridin-2-yl]oxy}benzylidene)piperidine-1-carboxamide]	1300 M⁻¹ s⁻¹
CCOc1ccc(Oc2cccc(C=C3CCN(C(=O)Nc4cccnn4)CC3)c2)nc1 [Example 48, 4-(3-(5-ethoxypyridin-2-yloxy)benzylidene)-N-(pyridazin-3-yl)piperidine-1-carboxamide]	5830 M⁻¹ s⁻¹
O=C(Nc1cccnn1)N1CCC(=Cc2cccc(Oc3ncccn3)c2)CC1 [Example 103, N-pyridazin-3-yl-4-[3-(pyrimidin-2-yloxy)benzylidene]piperidine-1-carboxamide]	162 M⁻¹ s⁻¹
